# Measurements reported in ChEMBL document CHEMBL3392998 (J Med Chem, 2014).
# Tests used:
# [1] = biological target: Human immunodeficiency virus type 1 protease (Human immunodeficiency virus 1, UniProt Q72874, A71V/G73S/I84V/L10I/L63P/L90M); assay: Inhibition of multidrug resistant HIV-1 protease L10I/L63P/A71V/G73S/I84V/L90M mutant using fluorogenic peptide substrate incubated for 30 mins prior to substrate addition measured after 10 mins by FRET assay
# [2] = biological target: Protease (Human immunodeficiency virus 1, UniProt Q9YQ12); assay: Inhibition of wild-type HIV-1 protease using fluorogenic peptide substrate incubated for 30 mins prior to substrate addition measured after 10 mins by FRET assay
# Protease, sequence (Q9YQ12 whole entry): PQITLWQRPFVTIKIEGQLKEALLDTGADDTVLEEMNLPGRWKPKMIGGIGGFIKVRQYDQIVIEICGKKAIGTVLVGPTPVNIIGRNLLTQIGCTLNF
# Human immunodeficiency virus type 1 protease, sequence (Q72874 entry or part of it A71V/G73S/I84V/L10I/L63P/L90M): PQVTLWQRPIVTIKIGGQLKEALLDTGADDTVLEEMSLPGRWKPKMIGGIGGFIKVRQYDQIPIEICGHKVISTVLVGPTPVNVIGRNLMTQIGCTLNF
smiles,measurement,setting,value
O=C1c2cccc([N+](=O)[O-])c2C(=O)N1c1ccc2[nH]c(=S)sc2c1,Ki,[1],91 µM
same,Ki,[2],96 µM
